Results from patent US7935482B2, “Gene expression profiling for identification monitoring and treatment of rheumatoid arthritis” (Source Precision Medicine, Inc., priority 2005, dated 2011).

Experiments:
[1] = test system: Inflammation Gene Expression Panel (inflammation index); test: Inflammation index from whole-blood Gene Expression Profile of RA patients under therapy; assay type: in vivo, human; settings: for inflammation index compared to normal: clinically stable RA patients, 10 per treatment group, FIGS. 9-11, Remicade: all but one of the patients
Description: The values Ci and P(i) may be determined in a number of ways, so that the index I is informative of the pertinent biological condition. One way is to apply statistical techniques, such as latent class modeling, to the profile data sets to correlate clinical data or experimentally derived data, or other data pertinent to the biological condition. In this connection, for example, may be employed the software from Statistical Innovations, Belmont, Mass., called Latent Gold®. Alternatively, other simpler modeling techniques may be employed in a manner known in the art. The index function for inflammation may be constructed, for example, in a manner that a greater degree of inflammation (as determined by the profile data set for the Inflammation Gene Expression Panel included in Tables 1 and 2) correlates with a large value of the index function. In a simple embodiment, therefore, each P(i) may be +1 or −1, depending on whether the constituent increases or decreases with increasing inflammation. As discussed in further detail below, a meaningful inflammation index that is proportional to the expression, referred to herein as IR-105, was constructed as follows: ¼{IL1A}+¼{IL1B}+¼{TNF}+¼{INFG}[…],
FIG. 4A further illustrates the consistency of inflammatory gene expression, illustrated here with respect to 7 loci of (of the Inflammation Gene Expression Panel included in Tables 1 and 2), in a set of 44 normal, undiagnosed blood donors. For each individual locus is shown the range of values lying within ±2 standard deviations of the mean expression value, which corresponds to 95% of a normally distributed population. Notwithstanding the great width of the confidence interval (95%), the measured gene expression value (ΔCt)—remarkably—still lies within 10% of the mean, regardless of the expression level involved. As described in further detail below, for a given biological condition an index can be constructed to provide a measurement of the condition. This is possible as a result of the conjunction of two circumstances: (i) there is a remarkable consistency of Gene Expression Profiles with respect to a biological condition across a population and (ii) there can be employed procedures that provide substantially reproducible measurement of constituents in a Gene Expression Panel giving rise to a Gene Expression Profile, under measurement conditions wherein specificity and efficiencies of amplification for all constituents of the panel are substantially similar and which therefore provides a measurement of a biological condition. Accordingly, a function of the expression values of representative constituent loci of FIG. 4A is here used to generate an inflammation index value, which is normalized so that a reading of 1 corresponds to constituent expression values of healthy subjects, as shown in the right-hand portion of FIG. 4A.
FIG. 4C illustrates the use of the same index as FIG. 4B, where the inflammation median for a normal population of subjects has been set to zero and both normal and diseased subjects are plotted in standard deviation units relative to that median. An inflammation index value was determined for each member of a normal, undiagnosed population of 70 individuals (black bars). The resulting distribution of index values, shown in FIG. 4C, can be seen to approximate closely a normal distribution. Similarly, index values were calculated for individuals from two diseased population groups, (1) rheumatoid arthritis patients treated with methotrexate (MTX) who are about to change therapy to more efficacious drugs (e.g., TNF inhibitors)(hatched bars), and (2) rheumatoid arthritis patients treated with disease modifying anti-rheumatoid drugs (DMARDS) other than MTX, who are about to change therapy to more efficacious drugs (e.g., MTX). […] This figure thus illustrates the utility of an index to derived from Gene Expression Profile data to evaluate disease status and to provide an objective and quantifiable treatment objective. […]

[2] = test system: Inflammation Gene Expression Panel; test: Quantitative RT-PCR gene expression in whole blood of treated RA patients relative to normal mean; assay type: in vivo, human; settings: 22 patients pooled
Description: For measuring the amount of a particular RNA in a sample, methods known to one of ordinary skill in the art were used to extract and quantify transcribed RNA from a sample with respect to a constituent of a Gene Expression Panel. (See detailed protocols below. Also see PCT application publication number WO 98/24935 herein incorporated by reference for RNA analysis protocols). Briefly, RNA is extracted from a sample such as a tissue, body fluid, or culture medium in which a population of cells of a subject might be growing. For example, cells may be lysed and RNA eluted in a suitable solution in which to conduct a DNAse reaction. First strand synthesis may be performed using a reverse transcriptase. Gene amplification, more specifically quantitative PCR assays, can then be conducted and the gene of interest calibrated against an internal marker such as 18S rRNA (Hirayama et al., Blood 92, 1998: 46-52). Any other endogenous marker can be used, such as 28S-25S rRNA and 5S rRNA. Samples are measured in multiple replicates, for example, 3 replicates. In an embodiment of the invention, quantitative PCR is performed using amplification, reporting agents and instruments such as those supplied commercially by Applied Biosystems (Foster City, Calif.). Given a defined efficiency of amplification of target transcripts, the point (e.g., cycle number) that signal from amplified target template is detectable may be directly related to the amount of specific message transcript in the measured sample. Similarly, other quantifiable signals such as fluorescence, enzyme activity, disintegrations per minute, absorbance, etc., when correlated to a known concentration of target templates (e.g., a reference standard curve) or normalized to a standard with limited variability can be used to quantify the number of target templates in an unknown sample.
As part of a larger international study involving patients with rheumatoid arthritis, the subject was followed over a twelve-week period. The subject was enrolled in the study because of a failure to respond to conservative drug therapy for rheumatoid arthritis and a plan to change therapy and begin immediate treatment with a TNF-inhibiting compound. Blood was drawn from the subject prior to initiation of new therapy (visit 1). After initiation of new TNF-inhibiting therapy, blood was drawn at 4 weeks post change in therapy (visit 2), 8 weeks (visit 3), and 12 weeks (visit 4) following the start of new therapy. Blood was collected using the PAXgene Blood RNA System™, held at room temperature for two hours and then frozen at −30° C.
Frozen samples were shipped to the central laboratory at Source Precision Medicine, the assignee herein, in Boulder, Colo. for determination of expression levels of genes in the 48-gene inflammation gene expression panel included in Tables 1 and 2. The blood samples were thawed and RNA extracted according to the manufacturer's recommended procedure. RNA was converted to cDNA and the level of expression of the 48 inflammatory genes was determined. Expression results are shown for 11 of the 48 loci in FIG. 3. […] Similarly, gene expression levels at each of the subsequent physician visits for each locus are compared to the same normal average value. […] In each visit following the change in the therapy, the level of inflammatory gene expression for 10 of the 11 loci is closer to the cognate locus average previously determined for the normal (i.e., undiagnosed, healthy) patient set. […]

[3] = Clinical assessment of RA patients during therapy (DAS, SJC, TJ, MDAD, HAQ); assay type: in vivo, human; settings: 22 RA patients pooled over both regimens, FIG. 23; for Disease Activity Score (DAS): baseline 6.51
[4] = human, in vivo; cited from earlier work
[5] = end of the study, 12 genes examined, FIG. 17

CN(Cc1cnc2nc(N)nc(N)c2n1)c1ccc(C(=O)N[C@@H](CCC(=O)O)C(=O)O)cc1 [methotrexate]
distribution of inflammation index values in comparison to the normal distribution ([1]; RA patients about to change therapy to more efficacious drugs, FIG. 4C): skewed upward | inflammation index compared to normal [1]: elevated compared to normal

anakinra [kineret]
number of genes still over-expressed to some extent [2, 5]: 7 | number of genes transitioned to the under-expressed category [2, 5]: 4 | expression of PTGS2 (COX2) versus normal ([2]; end of the study, FIG. 17): not statistically significantly different from normal | values of CD19 expression versus normals ([2]; from the start of the study until the end, FIG. 17): all under-expressed | relative expression of the genes overexpressed at start (11 of 12 genes) versus normals ([2]; week 4, normals n=69, FIG. 17): still over-expressed at week 4 but less so | joint counts, MD assessment and patient self-score over the course of the study [3]: all went down | Disease Activity Score (DAS) ([3]; after 4 weeks): 5.35 | Disease Activity Score (DAS) ([3]; end of the study): 4.88

etanercept [Enbrel]
patients with inflammation index in the normal range ([1]; 10 clinically stable RA patients, FIG. 10): 80% | inflammation index compared to normal [1]: comes much closer to normal

infliximab [Remicade]
association with serious infections [4]: associated with serious infections in some subjects | abnormally low inflammation index in two of the patients ([1]; 10 clinically stable RA patients, FIG. 11): suggesting an immunosuppressive response | inflammation index compared to normal [1]: at or below normal
